# Test: APAP-induced hepatotoxicity: liver enzyme release and liver histology
# Type: in vivo
# Conditions: control mice; APAP 500 mg/kg intraperitoneally at ZT0 versus ZT12; analyzed 10 hours after injection
# Description: Mice: C57B1/6 mice were purchased from Harlan and allowed to acclimatize to the animal facility environment for 2 weeks before used for experimentation. […] In all experiments, age- and gender-matched mice were used. Mice were 8-9 weeks of age at the beginning of experiments. All mice were kept at a strict 24-hour light-dark cycle, with lights being turn on from 6 am to 6 pm. […] Acetaminophen was administered intraperitoneally at a concentration of 500 mg/kg at either ZT0 or ZT12, and mice were analyzed 10 hours after injection. All antibiotics as well as acetaminophen were obtained from Sigma Aldrich.
# Histology: Sections from the left lobe of the liver were fixed in paraformaldehyde and embedded in paraffin for staining with H&E. Subsequently, sections were examined by a blinded veterinary pathologist and scored for necrosis and hemorrhage on a scale from 0 (healthy) to 3 (most severe).
# Statistical analysis: Data are expressed as mean ±SEM. […] Unless stated otherwise, elements with p<0.05 and q<0.1 were considered significant. For metabolites, q<0.2 was considered significant. For two-group comparisons, Mann-Whitney U-test was used and comparisons with p<0.05 were considered significant.
structure (smiles),measurement,value
"CC(=O)Nc1ccc(O)cc1 [APAP, acetaminophen]","APAP-induced hepatotoxicity (liver enzyme release, liver histology)",dramatically exacerbated liver toxicity when APAP was injected at ZT12 as compared to ZTO

# Source: patent US20190343782A1, “METHODS OF TREATING LIVER TOXICITY AND DISORDERS” (Yeda Research and Development Co. Ltd., priority 2016, published 2019)
